Test results from ChEMBL document CHEMBL3046749, “Synthesis and antimicrobial activity of novel bis-azaphenothiazines” (2013).
In brackets after ≈: the same amount, converted by molar mass. Activity calls are given as the source filed them. The rule behind the calls is not given here.

Key:
Format in all cases: functional
Escherichia coli [1] = test: Antibacterial activity against Escherichia coli MTCC 443 at 100 ug/ml after 16 to 18 hr by cup-plate method; conditions: read-out: IZ
Pseudomonas aeruginosa [2] = test: Antibacterial activity against Pseudomonas aeruginosa MTCC 424 after 16 hr by cup-plate method; conditions: MTCC 424, 16 h
Escherichia coli [3] = test: Antibacterial activity against Escherichia coli MTCC 443 after 16 hr by cup-plate method; conditions: MTCC 443, 16 h
Aspergillus fumigatus [4] = test: Antifungal activity against Aspergillus fumigatus MTCC 343 at 100 ug/ml after 28 to 30 hr by cup-plate method; conditions: for zone of inhibition at 100 µg/mL: read-out: IZ
Bacillus subtilis [5] = test: Antibacterial activity against Bacillus subtilis MTCC 441 at 100 ug/ml after 16 to 18 hr by cup-plate method; conditions: read-out: IZ
Aspergillus flavus [6] = test: Antifungal activity against Aspergillus flavus MTCC 277 at 100 ug/ml after 28 to 30 hr by cup-plate method; conditions: read-out: IZ
[7] = tested on: Staphylococcus epidermidis; test: Antibacterial activity against Staphylococcus epidermidis MTCC 435 after 16 hr by cup-plate method; conditions: MTCC 435, 16 h
Aspergillus niger [8] = test: Antifungal activity against Aspergillus niger MTCC 282 at 100 ug/ml after 28 to 30 hr by cup-plate method; conditions: for zone of inhibition at 100 µg/mL: read-out: IZ
Candida albicans [9] = test: Antifungal activity against Candida albicans MTCC 227 after 28 to 30 hr by cup-plate method
Bacillus subtilis [10] = test: Antibacterial activity against Bacillus subtilis MTCC 441 after 16 hr by cup-plate method; conditions: MTCC 441, 16 h
Aspergillus niger [11] = test: Antifungal activity against Aspergillus niger MTCC 282 after 28 to 30 hr by cup-plate method
Candida albicans [12] = test: Antifungal activity against Candida albicans MTCC 227 at 100 ug/ml after 28 to 30 hr by cup-plate method; conditions: read-out: IZ
Staphylococcus aureus [13] = test: Antibacterial activity against Staphylococcus aureus MTCC 096 at 100 ug/ml after 16 to 18 hr by cup-plate method; conditions: read-out: IZ
Aspergillus flavus [14] = test: Antifungal activity against Aspergillus flavus MTCC 277 after 28 to 30 hr by cup-plate method
Klebsiella pneumoniae [15] = test: Antibacterial activity against Klebsiella pneumoniae MTCC 432 at 100 ug/ml after 16 to 18 hr by cup-plate method; conditions: read-out: IZ
Salmonella typhi = test: Antibacterial activity against Salmonella enterica subsp. enterica serovar Typhi MTCC 733 at 100 ug/ml after 16 to 18 hr by cup-plate method; conditions: read-out: IZ
Pseudomonas aeruginosa [16] = test: Antibacterial activity against Pseudomonas aeruginosa MTCC 424 at 100 ug/ml after 16 to 18 hr by cup-plate method; conditions: read-out: IZ
Staphylococcus aureus [17] = test: Antibacterial activity against Staphylococcus aureus MTCC 096 after 16 hr by cup-plate method; conditions: MTCC 096, 16 h
[18] = tested on: Staphylococcus epidermidis; test: Antibacterial activity against Staphylococcus epidermidis MTCC 435 at 100 ug/ml after 16 to 18 hr by cup-plate method; conditions: read-out: IZ
Aspergillus fumigatus [19] = test: Antifungal activity against Aspergillus fumigatus MTCC 343 after 28 to 30 hr by cup-plate method
Klebsiella pneumoniae [20] = test: Antibacterial activity against Klebsiella pneumoniae MTCC 432 after 16 hr by cup-plate method; conditions: MTCC 432, 16 h

| SMILES | zone of inhibition at 100 µg/mL (Escherichia coli [1]) [mm] | MIC (Pseudomonas aeruginosa [2]) [µg/mL] | MIC (Escherichia coli [3]) [µg/mL] | zone of inhibition at 100 µg/mL (Aspergillus fumigatus [4]) [mm] | zone of inhibition at 100 µg/mL (Bacillus subtilis [5]) [mm] | zone of inhibition at 100 µg/mL (Aspergillus flavus [6]) [mm] | MIC [7] [µg/mL] | MIC (Candida albicans [9]) [µg/mL] | MIC (Bacillus subtilis [10]) [µg/mL] | MIC (Aspergillus niger [11]) [µg/mL] | zone of inhibition at 100 µg/mL (Candida albicans [12]) [mm] | zone of inhibition at 100 µg/mL (Staphylococcus aureus [13]) [mm] | MIC (Aspergillus flavus [14]) [µg/mL] | zone of inhibition at 100 µg/mL (Klebsiella pneumoniae [15]) [mm] | zone of inhibition at 100 µg/mL (Salmonella typhi) [mm] | zone of inhibition at 100 µg/mL (Pseudomonas aeruginosa [16]) [mm] | MIC (Staphylococcus aureus [17]) [µg/mL] | zone of inhibition at 100 µg/mL [18] [mm] | MIC (Aspergillus fumigatus [19]) [µg/mL] | MIC (Klebsiella pneumoniae [20]) [µg/mL] | also measured |
| --- | --- | --- | --- | --- | --- | --- | --- | --- | --- | --- | --- | --- | --- | --- | --- | --- | --- | --- | --- | --- | --- |
| Clc1ccc2c(c1)Sc1cccnc1N2CCCCCCN1c2ccc(Cl)cc2Sc2cccnc21 | 11 | 25 (≈ 45.3 µM) | 50 (≈ 90.7 µM) | 12 | 12 | 10 | > 50 | 12.5 (≈ 22.7 µM) | 25 (≈ 45.3 µM) | > 50 | 12 | 12 | > 50 | 11 | 12 | 12 | 25 (≈ 45.3 µM) | 10 | 12.5 (≈ 22.7 µM) | 50 (≈ 90.7 µM) | inhibition zone (IZ) (Aspergillus niger [8]): inactive |
| C(=C\CN1c2ccccc2Sc2cccnc21)/CN1c2ccccc2Sc2cccnc21 | 11 | 12.5 (≈ 27.6 µM) | 50 (≈ 110 µM) | 13 | 10 | 12 | > 50 | 12.5 (≈ 27.6 µM) | > 50 | 12.5 (≈ 27.6 µM) | 12 | 12 | 12.5 (≈ 27.6 µM) | 11 | 11 | 12 | 12.5 (≈ 27.6 µM) | 10 | 6.25 (≈ 13.8 µM) | 50 (≈ 110 µM) | zone of inhibition at 100 µg/mL (Aspergillus niger [8]): 12 mm |
| Brc1ccc2c(c1)Sc1cccnc1N2CCCCN1c2ccc(Br)cc2Sc2cccnc21 | 12 | 12.5 (≈ 20.4 µM) | 12.5 (≈ 20.4 µM) | 12 | 11 | 10 | 25 (≈ 40.8 µM) | 50 (≈ 81.6 µM) | 50 (≈ 81.6 µM) | 50 (≈ 81.6 µM) | 11 | 12 | > 50 | 11 | 10 | 12 | 12.5 (≈ 20.4 µM) | 11 | 12.5 (≈ 20.4 µM) | 50 (≈ 81.6 µM) | zone of inhibition at 100 µg/mL (Aspergillus niger [8]): 11 mm |
| CC(=O)Nc1ccc(F)cc1Sc1ncccc1[N+](=O)[O-] | 14 | 6.25 (≈ 20.3 µM) | 6.25 (≈ 20.3 µM) | 16 | 12 | 10 | 25 (≈ 81.4 µM) | 6.25 (≈ 20.3 µM) | 25 (≈ 81.4 µM) | 6.25 (≈ 20.3 µM) | 14 | 13 | > 50 | 11 | 12 | 14 | 12.5 (≈ 40.7 µM) | 12 | 6.25 (≈ 20.3 µM) | > 50 | zone of inhibition at 100 µg/mL (Aspergillus niger [8]): 18 mm |
| Clc1ccc2c(c1)Sc1cccnc1N2CCCCN1c2ccc(Cl)cc2Sc2cccnc21 | 12 | 50 (≈ 95.5 µM) | 12.5 (≈ 23.9 µM) | 11 | 11 | 12 | 6.25 (≈ 11.9 µM) | 25 (≈ 47.8 µM) | 50 (≈ 95.5 µM) | > 50 | 11 | 12 | 12.5 (≈ 23.9 µM) | 11 | 12 | 11 | 25 (≈ 47.8 µM) | 12 | 50 (≈ 95.5 µM) | > 50 | zone of inhibition at 100 µg/mL (Aspergillus niger [8]): 10 mm |
| Fc1ccc2c(c1)Sc1cccnc1N2CCCCN1c2ccc(F)cc2Sc2cccnc21 | 11 | > 50 | 25 (≈ 51 µM) | 10 | 12 | 12 | 12.5 (≈ 25.5 µM) | > 50 | 12.5 (≈ 25.5 µM) | 50 (≈ 102 µM) | 10 | 11 | 25 (≈ 51 µM) | 11 | 12 | 10 | 25 (≈ 51 µM) | 12 | > 50 | 50 (≈ 102 µM) | zone of inhibition at 100 µg/mL (Aspergillus niger [8]): 11 mm |
| Clc1ccc(COC(Cn2ccnc2)c2ccc(Cl)cc2Cl)c(Cl)c1 (centres undefined) [MICONAZOLE] |  |  |  | 15 |  | 17 |  | 6.25 (≈ 15 µM) |  | 6.25 (≈ 15 µM) | 19 |  | 12.5 (≈ 30 µM) |  |  |  |  |  | 6.25 (≈ 15 µM) |  | zone of inhibition at 100 µg/mL (Aspergillus niger [8]): 18 mm |
| CC(=O)Nc1ccccc1Sc1ncccc1[N+](=O)[O-] | 10 | 12.5 (≈ 43.2 µM) | > 50 |  | 12 | 12 | 25 (≈ 86.4 µM) | 12.5 (≈ 43.2 µM) | 25 (≈ 86.4 µM) | > 50 | 12 | 11 | 12.5 (≈ 43.2 µM) | 11 | 12 | 12 | > 50 | 11 | > 50 | 50 (≈ 173 µM) | inhibition zone (IZ) (Aspergillus fumigatus [4]): inactive; inhibition zone (IZ) (Aspergillus niger [8]): inactive |
| CC(=O)Nc1ccc(Br)cc1Sc1ncccc1[N+](=O)[O-] | 11 | 6.25 (≈ 17 µM) | > 50 | 14 | 12 | 12 | 6.25 (≈ 17 µM) | 6.25 (≈ 17 µM) | 25 (≈ 67.9 µM) | 6.25 (≈ 17 µM) | 13 | 12 | 12.5 (≈ 33.9 µM) | 13 | 11 | 14 | 25 (≈ 67.9 µM) | 13 | 6.25 (≈ 17 µM) | 6.25 (≈ 17 µM) | zone of inhibition at 100 µg/mL (Aspergillus niger [8]): 16 mm |
| Fc1ccc2c(c1)Sc1cccnc1N2CCCCCCN1c2ccc(F)cc2Sc2cccnc21 | 12 | 6.25 (≈ 12.1 µM) | 12.5 (≈ 24.1 µM) | 11 | 12 | 12 | 12.5 (≈ 24.1 µM) | 6.25 (≈ 12.1 µM) | 25 (≈ 48.2 µM) | 50 (≈ 96.4 µM) | 13 | 12 | 12.5 (≈ 24.1 µM) | 11 | 12 | 13 | 25 (≈ 48.2 µM) | 12 | 25 (≈ 48.2 µM) | 50 (≈ 96.4 µM) | zone of inhibition at 100 µg/mL (Aspergillus niger [8]): 10 mm |
| Brc1ccc2c(c1)Sc1cccnc1N2C/C=C/CN1c2ccc(Br)cc2Sc2cccnc21 | 12 | > 50 | 12.5 (≈ 20.5 µM) | 12 | 11 | 11 | > 50 | > 50 | 25 (≈ 41 µM) | > 50 | 10 | 12 | > 50 | 11 | 11 | 10 | 25 (≈ 41 µM) | 11 | 12.5 (≈ 20.5 µM) | 50 (≈ 81.9 µM) | inhibition zone (IZ) (Aspergillus niger [8]): inactive |
| CC(=O)Nc1ccc(Cl)cc1Sc1ncccc1[N+](=O)[O-] | 12 | 6.25 (≈ 19.3 µM) | 12.5 (≈ 38.6 µM) | 12 | 12 | 12 | 6.25 (≈ 19.3 µM) | 6.25 (≈ 19.3 µM) | 25 (≈ 77.2 µM) | 6.25 (≈ 19.3 µM) | 14 | 12 | 25 (≈ 77.2 µM) | 13 | 12 | 14 | 25 (≈ 77.2 µM) | 13 | 12.5 (≈ 38.6 µM) | 6.25 (≈ 19.3 µM) | zone of inhibition at 100 µg/mL (Aspergillus niger [8]): 14 mm |
